We go through 30 molecules from ChEMBL document CHEMBL3091440, “Heptaoxygenated xanthones as anti-austerity agents from Securidaca longepedunculata” (2013).

Assay [1] concerns PANC-1. Briefly: (§1) Cytotoxicity against human PANC1 cells assessed as cell viability after 24 hrs by WST8 assay. It counts as functional. (Tetrazolium dyes change colour on reduction, which living cells bring about.)
Assay [2] is described as follows: as §1. Format: functional, PANC-1.
In assay [3] the test system is PANC-1. Briefly: Induction of apoptosis in human PANC1 cells at 50 uM after 24 hrs by phase contrast microscopy. It counts as functional, cell-based.
In assay [4] the test system is PANC-1. The assay is described as follows: Induction of apoptosis in human PANC1 cells grown in glucose/amino acid deprived medium after 24 hrs by phase contrast microscopy. It counts as functional, cell-based.
Assay [5] relates to PANC-1. The assay is described as follows: Induction of apoptosis in human PANC1 cells at 50 uM after 24 hrs by Annexin V/propidium iodide staining-based fluorescence microscopy. Format: functional, cell-based.
Assay [6] relates to PANC-1. Briefly: Induction of apoptosis in human PANC1 cells grown in glucose deprived medium after 24 hrs by phase contrast microscopy. Format: functional, cell-based.

Calls of active or inactive are those of the source. No cut-off for these calls is given here. Some results are limits rather than exact numbers.

With `COc1c(O)ccc(C(=O)c2ccccc2)c1OC`, the Activity entry in the assay on PANC-1 [1] was “Dose-dependent effect”. For the same molecule, the PC50 in assay [2] was found to be 81.3 µM.

In the case of `COc1cc(O)c2c(=O)c3c(OC)cc(OC)cc3oc2c1`, the Activity result in the assay on PANC-1 [1] is “Dose-dependent effect”. Moreover, the PC50 in assay [2] is over 100 µM.

For the molecule `COc1ccc2oc3ccc(O)c(OC)c3c(=O)c2c1O`, in the assay on PANC-1 [1], the Activity entry was “Dose-dependent effect”. In addition, the PC50 in assay [2] turned out to be 51.4 µM.

With `COc1cc(O)c2c(=O)c3c(OC)c(O)ccc3oc2c1OC`, the Activity result with PANC-1 [1] is “Dose-dependent effect”. Besides, the PC50 in assay [2] was found to be 87.4 µM.

Consider `COc1c(OC)c(O)c2c(=O)c3c(O)cc(O)c(OC)c3oc2c1OC`, for which the Activity result with PANC-1 [1] and in the assay on PANC-1 [4] was “Dose-dependent effect” throughout. Also, the PC50 in assay [2] was 22.7 µM. Also, the outcome in the assay with PANC-1 [3] was inactive. Further, the result in the assay on PANC-1 [5] was Active.

Turning to `COc1cc(OC)c2c(=O)c3c(OC)c(OC)ccc3oc2c1OC`, the Activity entry with PANC-1 [1] was “Dose-dependent effect”. Also, in assay [2], the PC50 came to 93.6 µM.

As for `COc1c(O)cc2oc3ccccc3c(=O)c2c1O`, the Activity result in the assay on PANC-1 [1] was “Dose-dependent effect”. In addition, in assay [2], the PC50 turned out to be 81.2 µM.

For `COc1cc(C[C@H]2C(=O)OC[C@@H]2Cc2ccc(OC)c(OC)c2)ccc1O` [ARCTIGENIN], in assay [2], the PC50 was determined as 0.5 µM.

Consider `COc1c(OC)c(OC)c2c(=O)c3c(O)cc(O)c(OC)c3oc2c1O`, for which, in the assay with PANC-1 [1], the Activity result was “Dose-dependent effect”. For the same molecule, in assay [2], the PC50 is over 100 µM.

Regarding `COc1c(C(=O)c2ccccc2)ccc2c1OCO2`, the Activity result in the assay on PANC-1 [1] is “Dose-dependent effect”. Also, the PC50 in assay [2] is over 100 µM.

Take `COc1cccc(O)c1C(=O)O`: in the assay on PANC-1 [1], the Activity entry was “Dose-dependent effect”. Further, the PC50 in assay [2] is over 100 µM.

As to `COc1cc(O)c2c(=O)c3c(OC)c(OC)ccc3oc2c1OC`, the Activity entry in the assay on PANC-1 [1] is “Dose-dependent effect”. Also, in assay [2], the PC50 worked out at 73.3 µM.

Turning to `COc1cc(O)c2c(=O)c3c(OC)c4c(c(OC)c3oc2c1OC)OCO4`, the Activity entry in the assay with PANC-1 [1] is “Dose-dependent effect”. The PC50 in assay [2] came out at 78.1 µM.

Regarding `COc1c(OC)c(O)c2c(=O)c3c(OC)cc(O)c(OC)c3oc2c1OC`, the Activity entry in the assay on PANC-1 [1] and in the assay with PANC-1 [6] was “Dose-dependent effect” in each case. Also, the PC50 in assay [2] was 17.4 µM. For the same molecule, in the assay with PANC-1 [3], the outcome was inactive. In addition, in the assay with PANC-1 [5], the outcome was Active.

Regarding `COc1cc(O)c2c(=O)c3cc(O)ccc3oc2c1`, in the assay with PANC-1 [1], the Activity entry is “Dose-dependent effect”. Besides, the PC50 in assay [2] is over 100 µM.

On to `CC(=O)O[C@H]1C(=O)[C@@]2(C)[C@H]([C@H](OC(=O)c3ccccc3)[C@]3(O)C[C@H](OC(=O)[C@H](O)[C@@H](NC(=O)c4ccccc4)c4ccccc4)C(C)=C1C3(C)C)[C@]1(OC(C)=O)CO[C@@H]1C[C@@H]2O` [PACLITAXEL], for which the PC50 in assay [2] is over 100 µM.

`COc1cc(OC)c2c(=O)c3ccc(O)c(O)c3oc2c1`: the Activity result in the assay with PANC-1 [1] was “Dose-dependent effect”. Further, in assay [2], the PC50 was over 100 µM.

`COc1cccc(C(=O)c2ccc(O)cc2O)c1`: the Activity result in the assay with PANC-1 [1] was “Dose-dependent effect”. Moreover, the PC50 in assay [2] is over 100 µM.

As to `COc1cc(OC)c2c(=O)c3ccc(O)c(OC)c3oc2c1`, in the assay on PANC-1 [1], the Activity entry is “Dose-dependent effect”. Besides, in assay [2], the PC50 is 93.1 µM.

On to `COc1cc(OC)c(C(=O)c2ccccc2)cc1OC`, for which the Activity result with PANC-1 [1] was “Dose-dependent effect”. Besides, the PC50 in assay [2] is over 100 µM.

`COc1c(O)cccc1C(=O)OCc1ccccc1`: the Activity entry with PANC-1 [1] was “Dose-dependent effect”. The PC50 in assay [2] is over 100 µM.

As for `COc1ccc2oc3cc(O)cc(OC)c3c(=O)c2c1OC`, the Activity entry in the assay on PANC-1 [1] was “Dose-dependent effect”. For the same molecule, the PC50 in assay [2] was over 100 µM.

As to `COc1cc(O)c2c(=O)c3c(OC)c(OC)c(OC)c(O)c3oc2c1OC`, in the assay on PANC-1 [1], the Activity entry was “Dose-dependent effect”. Besides, the PC50 in assay [2] is over 100 µM.

For the molecule `COc1cccc(O)c1C(=O)OCc1ccccc1`, the Activity result with PANC-1 [1] was “Dose-dependent effect”. Besides, the PC50 in assay [2] is over 100 µM.

As for `O=c1c2ccc(O)c(O)c2oc2cccc(O)c12`, the Activity result with PANC-1 [1] was “Dose-dependent effect”. The PC50 in assay [2] was over 100 µM.

Consider `O=c1c2ccc(O)cc2oc2cccc(O)c12`, for which the Activity entry with PANC-1 [1] was “Dose-dependent effect”. Also, in assay [2], the PC50 is over 100 µM.

In the case of `COc1cc(OC)c2c(=O)c3c(OC)c(O)ccc3oc2c1`, the Activity entry in the assay on PANC-1 [1] is “Dose-dependent effect”. Further, the PC50 in assay [2] was over 100 µM.

For the molecule `COc1ccc2oc3cccc(O)c3c(=O)c2c1`, the Activity entry in the assay on PANC-1 [1] was “Dose-dependent effect”. Further, in assay [2], the PC50 worked out at 42.7 µM.

In the case of `COc1cc2oc3cccc(OC)c3c(=O)c2cc1OC`, the Activity entry with PANC-1 [1] was “Dose-dependent effect”. In assay [2], the PC50 was over 100 µM.

As for `COc1c(O)ccc(C(=O)c2ccccc2)c1O`, the Activity result in the assay with PANC-1 [1] was “Dose-dependent effect”. The PC50 in assay [2] is over 100 µM.
